What all share (assay type): functional
For experiment [1], the system named is Streptococcus suis. Put plainly: Antimicrobial activity against Streptococcus suis CA isolated from cerebrospinal fluid of patient with meningitis by broth microdilution method. (Broth dilution looks for growth in wells or tubes with falling amounts of substance.)
Experiment [2] relates to Streptococcus suis. Put plainly: Antimicrobial activity against Streptococcus suis UD isolated from cerebrospinal fluid of patient with meningitis by broth microdilution method.
A further experiment deals with Streptococcus pyogenes. Put plainly: Ratio of MIC for Streptococcus pyogenes 12RF transconjugant harboring ermB and tetW gene from Streptococcus suis UD to wild type Streptococcus suis UD.

From ChEMBL document CHEMBL1687842, “Different genetic elements carrying the tet(W) gene in two human clinical isolates of Streptococcus suis” (2011) come the findings set out here.

Molecules are shown by their SMILES. Values after ≈ are worked out from the molar mass of the structure shown. A value given as a limit tells only on which side of the number the result lay.

Turning to `CC[C@H]1OC(=O)[C@H](C)[C@@H](O[C@H]2C[C@@](C)(OC)[C@@H](O)[C@H](C)O2)[C@H](C)[C@@H](O[C@@H]2O[C@H](C)C[C@H](N(C)C)[C@H]2O)[C@](C)(O)C[C@@H](C)C(=O)[C@H](C)[C@@H](O)[C@]1(C)O` [ERYTHROMYCIN], the MIC was greater than 256 µg/mL with Streptococcus suis [1] and 4 µg/mL (≈ 5.45 µM) against Streptococcus suis [2].

Turning to `NC[C@H]1O[C@H](O[C@H]2[C@H](O)[C@@H](O[C@H]3O[C@H](CO)[C@@H](O)[C@H](N)[C@H]3O)[C@H](N)C[C@@H]2N)[C@H](O)[C@@H](O)[C@@H]1O` [KANAMYCIN], the Ratio in the experiment with Streptococcus pyogenes is given as 16. Same read-out and setting: with `CN[C@@H]1[C@H](O[C@H]2[C@H](O[C@H]3[C@H](O)[C@@H](O)[C@H](N=C(N)N)[C@@H](O)[C@@H]3N=C(N)N)O[C@@H](C)[C@]2(O)C=O)O[C@@H](CO)[C@H](O)[C@H]1O` [STREPTOMYCIN] the figure was 8. Take `CN(C)[C@@H]1C(O)=C(C(N)=O)C(=O)[C@@]2(O)C(O)=C3C(=O)c4c(O)cccc4[C@@](C)(O)[C@H]3C[C@@H]12` [TETRACYCLINE]: the MIC with Streptococcus suis [1] turned out to be 16 µg/mL (≈ 36 µM); in the experiment on Streptococcus suis [2] it was 8 µg/mL (≈ 18 µM).

Broadly, the MIC is the least concentration at which growth counts as inhibited.
